Data as given in patent US6770596B1, “Fused tricyclic compounds, process for their preparation, and herbicidal compositions containing them” (Ishihara Sangyo Kaisha Ltd., priority 2002, dated 2004).

Experiments:
Type in all cases: in vivo
[1] = tested on: lambsquarters (Chenopodium album, CHA); assay: Post-emerge test, lambsquarters; conditions: 250 g ai/ha, 14 days after application, rating scale 0-100 (0 no damage, 100 complete death)
Source text: (§1) A standard greenhouse herbicide activity screening system was used to evaluate the herbicidal efficacy and crop safety of these test compounds. Seven broadleaf weed species including redroot pigweed (Amaranthus retroflexus, AMR), velvetleaf (Abutilon theophrasti, ABT), sicklepod (Cassia obtusifolia, CAO), ivyleaf morningglory (Ipomoea hederacea, IPH), lambsquarters (Chenopodium album, CHA), common ragweed (Ambrosia artemisiifolia L., AML), and cocklebur (Xanthium strumariunt, XAS) were used as test species. Four grass weed species including green foxtail (Setaria viridis, SEV), barnyardgrass (Echinachloa crus-galli, ECC), johnsongrass (Sorghum halepense, SOH), and large crabgrass (Digitaria sanguinalis, DIS) were also used. In addition, four crop species, field corn (Zea mays L., var. Dekalb 535, CORN), soybean (Glycine max L., var. Pella 86, SOY), upland rice (Oryza sp., var.Tebonnet, RICE), and wheat (Triticum aestivum) were included all plants were grown in 10 cm square plastic pots which were filled with a sandy loam soil mix.
(§2) For pre-emerge tests, seeds were planted one day prior to application of the test compounds. All test compounds were dissolved in acetone and applied to the test pots in a volume of 187 l/ha. Test materials were applied at rates ranging from 8 g ai/ha to 1000 g ai/ha using a track sprayer equipped with a TJ8001E even flow flat fan spray nozzle. This application simulates a typical commercial field herbicide application.
(§3) For post-emerge tests, seeds were planted 8-21 days prior to the test to allow emergence and good foliage development prior to application of the test substances. At the time of the post-emerge application, plants of all species were usually at the 2-3 leaf stage of development. In the postemerge test, a commercial non-ionic surfactant was also included (0.25% v/v) to enhance wetting of the leaf surfaces of target plants.
(§4) At 14 days after application of the test materials, phytotoxicity ratings were recorded. A rating scale of 0-100 was used for both pre and post emerge tests as previously described in Research Methods in Weed Science, 2nd edition, B, Truelove, Ed., Southern Weed Science Society, Auburn University, Auburn, Ala., 1977. Briefly, “0” corresponds to no damage and “100” corresponds to complete death of all plants in the test unit. This scale was used both to determine efficacy against weed species and damage to crop species. Herbicide activity data for various compounds of this invention, which are shown by compound No. in Tables 1-3, are shown in Tables 5 and 6.

[2] = tested on: lambsquarters (Chenopodium album, CHA); assay: Pre-emerge test, lambsquarters; conditions: 250 g ai/ha, 14 days after application, rating scale 0-100 (0 no damage, 100 complete death)
Source text: as §1, §2, §4

[3] = tested on: cocklebur (Xanthium strumariunt, XAS); assay: Pre-emerge test, cocklebur; conditions: 250 g ai/ha, 14 days after application, rating scale 0-100 (0 no damage, 100 complete death)
Source text: as §1, §2, §4

[4] = tested on: johnsongrass (Sorghum halepense, SOH); assay: Post-emerge test, johnsongrass; conditions: 250 g ai/ha, 14 days after application, rating scale 0-100 (0 no damage, 100 complete death)
Source text: as §1, §2, §3, §4

[5] = tested on: soybean (Glycine max L., var. Pella 86, SOY); assay: Pre-emerge test, crop damage soybean
Source text: as §1, §2, §4

[6] = tested on: upland rice (Oryza sp., var.Tebonnet, RICE); assay: Pre-emerge test, crop damage upland rice
Source text: as §1, §2, §4

[7] = tested on: velvetleaf (Abutilon theophrasti, ABT); assay: Pre-emerge test, velvetleaf; conditions: 250 g ai/ha, 14 days after application, rating scale 0-100 (0 no damage, 100 complete death)
Source text: as §1, §2, §4

[8] = tested on: redroot pigweed (Amaranthus retroflexus, AMR); assay: Post-emerge test, redroot pigweed; conditions: 250 g ai/ha, 14 days after application, rating scale 0-100 (0 no damage, 100 complete death)
Source text: as §1, §2, §3, §4

[9] = tested on: ivyleaf morningglory (Ipomoea hederacea, IPH); assay: Post-emerge test, ivyleaf morningglory; conditions: 250 g ai/ha, 14 days after application, rating scale 0-100 (0 no damage, 100 complete death)
Source text: as §1, §2, §3, §4

[10] = tested on: field corn (Zea mays L., var. Dekalb 535, CORN); assay: Pre-emerge test, crop damage field corn
Source text: as §1, §2, §4

[11] = tested on: large crabgrass (Digitaria sanguinalis, DIS); assay: Post-emerge test, large crabgrass; conditions: 250 g ai/ha, 14 days after application, rating scale 0-100 (0 no damage, 100 complete death)
Source text: as §1, §2, §3, §4

[12] = tested on: velvetleaf (Abutilon theophrasti, ABT); assay: Post-emerge test, velvetleaf; conditions: 250 g ai/ha, 14 days after application, rating scale 0-100 (0 no damage, 100 complete death)
Source text: as §1, §2, §3, §4

[13] = tested on: ivyleaf morningglory (Ipomoea hederacea, IPH); assay: Pre-emerge test, ivyleaf morningglory; conditions: 250 g ai/ha, 14 days after application, rating scale 0-100 (0 no damage, 100 complete death)
Source text: as §1, §2, §4

[14] = tested on: johnsongrass (Sorghum halepense, SOH); assay: Pre-emerge test, johnsongrass; conditions: 250 g ai/ha, 14 days after application, rating scale 0-100 (0 no damage, 100 complete death)
Source text: as §1, §2, §4

[15] = tested on: sicklepod (Cassia obtusifolia, CAO); assay: Pre-emerge test, sicklepod; conditions: 250 g ai/ha, 14 days after application, rating scale 0-100 (0 no damage, 100 complete death)
Source text: as §1, §2, §4

[16] = tested on: green foxtail (Setaria viridis, SEV); assay: Post-emerge test, green foxtail; conditions: 250 g ai/ha, 14 days after application, rating scale 0-100 (0 no damage, 100 complete death)
Source text: as §1, §2, §3, §4

[17] = tested on: common ragweed (Ambrosia artemisiifolia L., AML); assay: Post-emerge test, common ragweed; conditions: 250 g ai/ha, 14 days after application, rating scale 0-100 (0 no damage, 100 complete death)
Source text: as §1, §2, §3, §4

[18] = tested on: field corn (Zea mays L., var. Dekalb 535, CORN); assay: Post-emerge test, crop damage field corn
Source text: as §1, §2, §3, §4

[19] = tested on: green foxtail (Setaria viridis, SEV); assay: Pre-emerge test, green foxtail; conditions: 250 g ai/ha, 14 days after application, rating scale 0-100 (0 no damage, 100 complete death)
Source text: as §1, §2, §4

[20] = tested on: common ragweed (Ambrosia artemisiifolia L., AML); assay: Pre-emerge test, common ragweed; conditions: 250 g ai/ha, 14 days after application, rating scale 0-100 (0 no damage, 100 complete death)
Source text: as §1, §2, §4

[21] = tested on: sicklepod (Cassia obtusifolia, CAO); assay: Post-emerge test, sicklepod; conditions: 250 g ai/ha, 14 days after application, rating scale 0-100 (0 no damage, 100 complete death)
Source text: as §1, §2, §3, §4

[22] = tested on: soybean (Glycine max L., var. Pella 86, SOY); assay: Post-emerge test, crop damage soybean
Source text: as §1, §2, §3, §4

[23] = tested on: upland rice (Oryza sp., var.Tebonnet, RICE); assay: Post-emerge test, crop damage upland rice
Source text: as §1, §2, §3, §4

[24] = tested on: barnyardgrass (Echinachloa crus-galli, ECC); assay: Pre-emerge test, barnyardgrass; conditions: 250 g ai/ha, 14 days after application, rating scale 0-100 (0 no damage, 100 complete death)
Source text: as §1, §2, §4

[25] = tested on: wheat (Triticum aestivum); assay: Pre-emerge test, crop damage wheat
Source text: as §1, §2, §4

[26] = tested on: large crabgrass (Digitaria sanguinalis, DIS); assay: Pre-emerge test, large crabgrass; conditions: 250 g ai/ha, 14 days after application, rating scale 0-100 (0 no damage, 100 complete death)
Source text: as §1, §2, §4

[27] = tested on: cocklebur (Xanthium strumariunt, XAS); assay: Post-emerge test, cocklebur; conditions: 250 g ai/ha, 14 days after application, rating scale 0-100 (0 no damage, 100 complete death)
Source text: as §1, §2, §3, §4

[28] = tested on: redroot pigweed (Amaranthus retroflexus, AMR); assay: Pre-emerge test, redroot pigweed; conditions: 250 g ai/ha, 14 days after application, rating scale 0-100 (0 no damage, 100 complete death)
Source text: as §1, §2, §4

[29] = tested on: barnyardgrass (Echinachloa crus-galli, ECC); assay: Post-emerge test, barnyardgrass; conditions: 250 g ai/ha, 14 days after application, rating scale 0-100 (0 no damage, 100 complete death)
Source text: as §1, §2, §3, §4

[30] = tested on: wheat (Triticum aestivum); assay: Post-emerge test, crop damage wheat
Source text: as §1, §2, §3, §4

[31] = pre-emerge, 250 g ai/ha, 14 days after application, rating scale 0-100 (0 no damage, 100 complete death)
[32] = post-emerge, 250 g ai/ha, 14 days after application, rating scale 0-100 (0 no damage, 100 complete death)
[33] = var. Pella 86, Glycine max (soybean), in vivo, 14 days
[34] = var. Tebonnet, Oryza sp. (upland rice), in vivo, 14 days
[35] = var. Dekalb 535, Zea mays (field corn), in vivo, 14 days
[36] = Triticum aestivum (wheat), in vivo, 14 days

| SMILES | Post-emerge Herbicidal Activity CHA (phytotoxicity rating) [1] | Pre-emerge Herbicidal Activity CHA (phytotoxicity rating) [2] | Pre-emerge Herbicidal Activity XAS (phytotoxicity rating) [3] | Post-emerge Herbicidal Activity SOH (phytotoxicity rating) [4] | Pre-emerge Herbicidal Activity ABT (phytotoxicity rating) [7] | Post-emerge Herbicidal Activity AMR (phytotoxicity rating) [8] | Post-emerge Herbicidal Activity IPH (phytotoxicity rating) [9] | Post-emerge Herbicidal Activity DIS (phytotoxicity rating) [11] | Post-emerge Herbicidal Activity ABT (phytotoxicity rating) [12] | Pre-emerge Herbicidal Activity IPH (phytotoxicity rating) [13] | Pre-emerge Herbicidal Activity SOH (phytotoxicity rating) [14] | Pre-emerge Herbicidal Activity CAO (phytotoxicity rating) [15] | Post-emerge Herbicidal Activity SEV (phytotoxicity rating) [16] | Post-emerge Herbicidal Activity AML (phytotoxicity rating) [17] | Pre-emerge Herbicidal Activity SEV (phytotoxicity rating) [19] | Pre-emerge Herbicidal Activity AML (phytotoxicity rating) [20] | Post-emerge Herbicidal Activity CAO (phytotoxicity rating) [21] | Pre-emerge Herbicidal Activity ECC (phytotoxicity rating) [24] | Pre-emerge Herbicidal Activity DIS (phytotoxicity rating) [26] | Post-emerge Herbicidal Activity XAS (phytotoxicity rating) [27] | other results |
| --- | --- | --- | --- | --- | --- | --- | --- | --- | --- | --- | --- | --- | --- | --- | --- | --- | --- | --- | --- | --- | --- |
| O=C1CN2C(=O)COc3cc(F)c(N4C(=O)C5=C(CCCC5)C4=O)c(c32)N1 [1-37, 9-Flouro-8-(4,5,6,7-tetrahydro-2H-isoindole-1,3-dione-2-yl)-5H-pyrazino[1,2,3de]-1,4-benzoxazine-3,6(2H, 7H)-dione] | 85 | 100 | 35 | 50 | 60 | 100 | 100 | 0 | 100 | 85 | 25 | 40 | 75 | 70 | 0 | 98 | 15 | 15 | 40 | 95 | Pre-emerge crop damage SOY (phytotoxicity rating) [5, 31]: 10; Pre-emerge crop damage RICE (phytotoxicity rating) [6, 31]: 20; Pre-emerge crop damage CORN (phytotoxicity rating) [10, 31]: 15; Post-emerge crop damage CORN (phytotoxicity rating) [18, 32]: 35; Post-emerge crop damage SOY (phytotoxicity rating) [22, 32]: 55; Post-emerge crop damage RICE (phytotoxicity rating) [23, 32]: 80; Pre-emerge crop damage WHEAT (phytotoxicity rating) [25, 31]: 20; Pre-emerge Herbicidal Activity AMR (phytotoxicity rating) [28]: 100; Post-emerge Herbicidal Activity ECC (phytotoxicity rating) [29]: 60; Post-emerge crop damage WHEAT (phytotoxicity rating) [30, 32]: 10 |
| Cn1nc(-c2c(F)cc3c4c2NC(=O)CN4C(=O)CO3)c(Cl)c1C(F)(F)F [1-13, 8-[4-Chloro-1-methyl-5-(trifluoromethyl)-1H-pyrazol-3-yl]-9-fluoro-5H-pyrazino[1,2,3-de]-1,4-benzoxazine-3,6(2H, 7H)-dione] | 100 | 100 | 80 | 100 | 100 | 100 | 100 | 55 | 100 | 100 | 100 | 100 | 100 | 100 | 100 | 100 | 100 | 100 | 100 | 100 | Pre-emerge crop damage SOY (phytotoxicity rating) [5, 33]: 50; Pre-emerge crop damage RICE (phytotoxicity rating) [6, 34]: 90; Pre-emerge crop damage CORN (phytotoxicity rating) [10, 35]: 90; Post-emerge crop damage CORN (phytotoxicity rating) [18, 35]: 25; Post-emerge crop damage SOY (phytotoxicity rating) [22, 33]: 100; Post-emerge crop damage RICE (phytotoxicity rating) [23, 34]: 99; Pre-emerge crop damage WHEAT (phytotoxicity rating) [25, 36]: 65; Pre-emerge Herbicidal Activity AMR (phytotoxicity rating) [28]: 100; Post-emerge Herbicidal Activity ECC (phytotoxicity rating) [29]: 99; Post-emerge crop damage WHEAT (phytotoxicity rating) [30, 36]: 25 |
| CC1C(=O)Nc2c(-c3ncc(C(F)(F)F)cc3Cl)c(F)cc3c2N1C(=O)CO3 (stereo not drawn) [1-64] | 100 | 100 | 100 | 85 | 100 | 100 | 100 | 40 | 100 | 100 | 100 | 100 | 100 | 95 | 100 | 100 | 85 | 100 | 100 | 100 | Pre-emerge crop damage SOY (phytotoxicity rating) [5, 31]: 99; Pre-emerge crop damage RICE (phytotoxicity rating) [6, 31]: 95; Pre-emerge crop damage CORN (phytotoxicity rating) [10, 31]: 100; Post-emerge crop damage CORN (phytotoxicity rating) [18, 32]: 5; Post-emerge crop damage SOY (phytotoxicity rating) [22, 32]: 100; Post-emerge crop damage RICE (phytotoxicity rating) [23, 32]: 0; Pre-emerge crop damage WHEAT (phytotoxicity rating) [25, 31]: 90; Pre-emerge Herbicidal Activity AMR (phytotoxicity rating) [28]: 100; Post-emerge Herbicidal Activity ECC (phytotoxicity rating) [29]: 100; Post-emerge crop damage WHEAT (phytotoxicity rating) [30, 32]: 15 |
